{"source": "patent US20200261391A1", "about": "“METHODS OF REDUCING THE RISK OF A CARDIOVASCULAR EVENT IN A STATIN-TREATED SUBJECT BY INCREASING SERUM AND PLASMA EPA AND DPA LEVELS” (Amarin Pharmaceuticals Ireland Limited, priority 2019, published 2020)", "assay_type_in_all_cases": "in vivo, human", "key": {"[1]": {"test_system": "patients with elevated triglyceride levels on statin therapy", "test": "REDUCE-IT endpoints by EPA blood level tertile in the icosapent ethyl group compared to placebo", "conditions": "averaged upper EPA tertile vs below the upper tertile", "description": "To assess the relationship between on-treatment hsCRP and the primary and key secondary endpoints, subgroup analyses were carried out as done for the ITT population for patients grouped according to values greater or equal to or less than […] at baseline and at 2 years. To assess the relationship between on-treatment serum EPA and the primary and key secondary endpoints, Kaplan-Meier (KM) curves were produced for AMR101 treated patients grouped into tertiles based on their values at year 1 and were compared with the placebo-treated patients.\nThis is a study aimed towards determining a relative risk reduction (RRR) between subjects stratified by EPA tertiles in the REDUCE-IT clinical trial described above in Example 1. Samples were obtained from those subjects and total EPA and AA levels in human serum and plasma samples were determined according at least to the methods described in Example 7.\n(§1) The objective of this study is to assess the effects of administering icosapent ethyl at 4 g per day to patients from the REDUCE-IT trial of Example 1. More specifically, patients from the REDUCE-IT trial of Example 1 were stratified by their EPA levels into one of three tertiles. Following stratification, the objective was to determine if the RRR differs between patients having EPA levels in the three different tertiles. For the data collected as shown in Tables 38-43 and FIGS. 52, 53, and 56-59, the tertiles were established based on data collected from subjects at 1 year, 2 years, and last visit following icosapent ethyl administration compared to placebo. Data are presented as an average of 1 year, 2 year, […], and end of study values. The data was further analyzed use both pooled and unpooled statistically methods."}, "[2]": {"test_system": "patients with elevated triglyceride levels on statin therapy", "test": "REDUCE-IT endpoints by pooled (icosapent ethyl and placebo) EPA/AA ratio tertile", "source_text": "as §1\nPlacebo and icosapent ethyl treated subjects were pooled and stratified based on EPA/AA tertiles with […], […], and the highest […]"}, "[3]": {"test_system": "patients with elevated triglyceride levels on statin therapy", "test": "REDUCE-IT endpoints by pooled (icosapent ethyl and placebo) EPA blood level tertile", "conditions": "FIG. 54; ITT pooled; tertiles ≤31.733, >31.733 to ≤120.175, >120.175 μg/mL"}, "[4]": {"test_system": "patients with elevated triglyceride levels on statin therapy", "test": "REDUCE-IT endpoints by pooled (icosapent ethyl and placebo) EPA blood level tertile", "source_text": "as §1\n(0.84 for lowest vs. placebo, 0.72 for middle vs. placebo, and 0.65 for highest vs. placebo)."}, "[5]": {"conditions": "FIG. 56, ITT pooled, tertiles ≤0.0857, >0.0857 to ≤0.4053, >0.4053"}, "[6]": {"conditions": "pooled, tertiles ≤0.084337, >0.084337 to ≤0.395187, >0.395187"}, "[7]": {"conditions": "pooled, tertiles ≤31.305, >31.305 to ≤118.1, >118.1 μg/mL"}}}
{"smiles": "CC/C=C\\C/C=C\\C/C=C\\C/C=C\\C/C=C\\CCCC(=O)O", "note": "[EPA, eicosapentaenoic acid]", "values": [{"measurement": "primary endpoint HR, average achieved EPA >181 mg/L vs ≤181 mg/L", "setting": "[1]", "value": 0.842}, {"measurement": "primary endpoint HR, highest vs. lowest EPA/AA tertile", "setting": "[2]; [5]", "value": 0.63}, {"measurement": "primary endpoint HR, middle vs. lowest EPA/AA tertile", "setting": "[2]; [5]", "value": 0.79}, {"measurement": "key secondary endpoint HR, highest vs. lowest EPA/AA tertile", "setting": "[2]; [6]", "value": 0.57}, {"measurement": "key secondary endpoint HR, highest vs. middle EPA/AA tertile", "setting": "[2]; [6]", "value": 0.75}, {"measurement": "key secondary endpoint HR, middle vs. lowest EPA/AA tertile", "setting": "[2]; [6]", "value": 0.76}, {"measurement": "primary endpoint HR, highest vs. lowest EPA/AA tertile", "setting": "[2]; [6]", "value": 0.64}, {"measurement": "primary endpoint HR, highest vs. middle EPA/AA tertile", "setting": "[2]; [6]", "value": 0.84}, {"measurement": "primary endpoint HR, middle vs. lowest EPA/AA tertile", "setting": "[2]; [6]", "value": 0.77}, {"measurement": "primary composite endpoint HR, high vs lowest EPA tertile", "setting": "[3]", "value": 0.64}, {"measurement": "primary composite endpoint RRR, highest vs lowest EPA tertile", "setting": "[4]; FIG. 52, pooled", "value": 43, "unit": "%"}, {"measurement": "primary composite endpoint RRR, highest vs middle EPA tertile", "setting": "[4]; FIG. 52, pooled", "value": 30, "unit": "%"}, {"measurement": "primary composite endpoint RRR, middle vs lowest EPA tertile", "setting": "[4]; FIG. 52, pooled", "value": 29, "unit": "%"}, {"measurement": "primary composite endpoint HR, middle vs lowest EPA tertile", "setting": "[4]; FIG. 54, ITT pooled, tertiles ≤31.733, >31.733 to ≤120.175, >120.175 μg/mL", "value": 0.79}, {"measurement": "primary endpoint HR, highest vs. lowest tertile", "setting": "[4]; pooled placebo and icosapent ethyl, tertiles ≤31.305, >31.305 to ≤118.1, >118.1 μg/mL", "value": 0.65}, {"measurement": "key secondary endpoint HR, highest vs. lowest tertile", "setting": "[4]; [7]", "value": 0.61}, {"measurement": "key secondary endpoint HR, highest vs. middle tertile", "setting": "[4]; [7]", "value": 0.78}, {"measurement": "key secondary endpoint HR, middle vs. lowest tertile", "setting": "[4]; [7]", "value": 0.78}, {"measurement": "primary endpoint HR, highest vs. middle tertile", "setting": "[4]; [7]", "value": 0.80}, {"measurement": "primary endpoint HR, middle vs. lowest tertile", "setting": "[4]; [7]", "value": 0.81}]}
